Experimental data: US12435061B2 (priority 2020, dated 2025)
Several values for one entry are separate records, joined by “and”; a condition that tells them apart may be missing. Identical values can stand only once. Counter-ions that a name gives are not always drawn. Like-named read-outs stand apart in the source and are kept apart here.

Biological target: hTRPV3 (Homo sapiens (Human), UniProt Q8NET8)
Assay: Whole-cell patch clamp, hTRPV3 Phase 1 / Phase 2 currents
Assay type: cell-based
Procedure, shortened: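 Whole-cell recordings on induced TRPV3 cells replated on coverslips, held at −40 mV with 400 ms ramps from −120 to +100 mV every 5 s; currents read at −80 and +80 mV. Ringer's external solution; current activated by heating to ≥28 °C or 20 μM 2-APB.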

[1] = Phase 1 current, human TRPV3, read-out: hTRPV3 (nM) Phase 1
[2] = Phase 1 current, inward, whole-cell patch clamp, read-out: hTRPV3 Patch P1 Inwd
[3] = Phase 1 current, read-out: hTRPV3 (nM) (Phase 1)
[4] = Phase 2 current, read-out: hTRPV3 (nM) (Phase 2)
[5] = Phase 2 current, inward, whole-cell patch clamp, read-out: hTRPV3 Patch P2 Inwd

hTRPV3, sequence (Q8NET8 whole entry): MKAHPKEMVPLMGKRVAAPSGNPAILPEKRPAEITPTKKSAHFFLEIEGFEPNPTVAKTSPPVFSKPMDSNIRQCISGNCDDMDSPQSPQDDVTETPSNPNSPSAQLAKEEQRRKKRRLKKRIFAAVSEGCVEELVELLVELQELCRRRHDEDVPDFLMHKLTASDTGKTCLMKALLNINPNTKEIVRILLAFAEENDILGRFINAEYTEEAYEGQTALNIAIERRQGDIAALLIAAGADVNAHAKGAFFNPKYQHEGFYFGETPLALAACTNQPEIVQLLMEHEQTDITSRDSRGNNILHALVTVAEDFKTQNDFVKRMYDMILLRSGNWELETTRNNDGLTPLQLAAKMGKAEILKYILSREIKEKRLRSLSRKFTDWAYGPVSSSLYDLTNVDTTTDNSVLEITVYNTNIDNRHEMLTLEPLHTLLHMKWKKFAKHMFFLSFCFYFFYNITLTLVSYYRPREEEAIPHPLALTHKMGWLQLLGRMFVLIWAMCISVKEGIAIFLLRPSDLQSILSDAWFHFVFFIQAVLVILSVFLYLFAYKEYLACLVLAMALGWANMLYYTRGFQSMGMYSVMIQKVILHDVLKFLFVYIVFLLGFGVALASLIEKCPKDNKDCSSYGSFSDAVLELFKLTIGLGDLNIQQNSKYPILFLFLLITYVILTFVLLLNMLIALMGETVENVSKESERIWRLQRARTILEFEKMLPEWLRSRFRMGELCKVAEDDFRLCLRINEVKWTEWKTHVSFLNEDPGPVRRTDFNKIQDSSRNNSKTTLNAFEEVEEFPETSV

For `CC(C)c1ccccc1Oc1ccc(C2CCN(C(=O)c3ncccc3Cl)C2)c(C(=O)O)c1` (stereo not drawn) [Compound 2-25, 2-(1-(3-chloropicolinoyl)pyrrolidin-3-yl)-5-(2-isopropylphenoxy)benzoic acid], the IC50 [1] was greater than 3200 nM and the IC50 [2] was greater than 1000 nM.
Work on `NC(=O)c1cc(-c2cccnc2)ccc1N1CC[C@@H](Oc2ccccn2)C1` [Compound 1-87, hydrochloride] yielded an IC50 [2] greater than 1000 nM.
`Cc1ccc(CN2CCC(c3ccc(Oc4ccccc4C(C)C)cc3CO)C2)nc1` (stereo not drawn) [Compound 2-90, (5-(2-isopropylphenoxy)-2-(1-((5-methylpyridin-2-yl)methyl)pyrrolidin-3-yl)phenyl)methanol hydrochloride] gave an IC50 [1] of 812 nM and an IC50 [2] of 100 to 1000 nM.
`CC(O)c1cc(F)ccc1-c1ccc(C2CCN(C(=O)c3ccc(F)cn3)C2)c(CO)c1` (stereo not drawn) [Compound 2-70, (3-(4′-fluoro-2′-(1-hydroxyethyl)-3-(hydroxymethyl)biphenyl-4-yl)pyrrolidin-1-yl)(5-fluoropyridin-2-yl)methanone] showed an IC50 [1] of 2330 nM and an IC50 [2] greater than 1000 nM.
`NC(=O)c1cc(-c2ccccc2)ccc1N1CC[C@H](Nc2ccc(C(F)(F)F)cn2)C1` (stereo in doubt) [Compound 1-375] was tested, and the IC50 [3] was > 1000 nM and ~5500 nM and the IC50 [4] was > 1000 nM and ~2850 nM.
In the case of `O=C(c1ncccc1Cl)N1CCC(c2ccc(-c3ccccc3C3CC3)cc2CO)C1` (stereo not drawn) [Compound 2-55, (3-chloropyridin-2-yl)(3-(2′-cyclopropyl-3-(hydroxymethyl)biphenyl-4-yl)pyrrolidin-1-yl)methanone], the IC50 [1] is reported as 88.4 nM and the IC50 [2] is reported as 10 to 100 nM.
Work on `O=C(NCc1ccccc1)c1ccccc1N1CC[C@H](Oc2ccc(C(F)(F)F)cn2)C1` [Compound 1-51, (S)—N-benzyl-2-(3-(5-(trifluoromethyl)pyridin-2-yloxy)pyrrolidin-1-yl)benzamide] yielded an IC50 [5] greater than 1000 nM.
`COCc1ccccc1Oc1ccc(N2CC[C@H](Oc3ccccn3)C2)c(CCO)c1` [Compound 1-348, (S)-2-(5-(2-(methoxymethyl)phenoxy)-2-(3-(pyridin-2-yloxy)pyrrolidin-1-yl)phenyl) ethanol] showed an IC50 [2] greater than 1000 nM and an IC50 [3] greater than 3200 nM.
For `CCc1ccccc1-c1ccc(N2CC[C@H](Oc3ccc(C)cn3)C2)c(CCO)n1` [Compound 1-218, (S)-2-(6-(2-ethylphenyl)-3-(3-(5-methylpyridin-2-yloxy)pyrrolidin-1-yl)pyridin-2-yl)ethanol], the IC50 [2] was 100 to 1000 nM and the IC50 [3] was 614 nM.
Work on `Cc1cncc(C(=O)N2CCC(c3ccc(-c4ccccc4C4CC4)cc3CO)C2)n1` (stereo not drawn) [Compound 2-109] yielded an IC50 [1] of 18.2 nM and an IC50 [2] of 10 to 100 nM.
For `NC(=O)c1cc(-c2ccccn2)ccc1N1CC[C@@H](Oc2ccccn2)C1` [Compound 1-88, (R)-5-(pyridin-2-yl)-2-(3-(pyridin-2-yloxy)pyrrolidin-1-yl)benzamide], the IC50 [2] was greater than 1000 nM, the IC50 [3] was greater than 3200 nM and the IC50 [5] was greater than 1000 nM. For the same compound, the IC50 [4] was greater than 3200 nM.
In the case of `O=C(c1ncccc1Cl)N1CCC(c2ccc(C(O)c3ccc(F)cc3)cc2CO)C1` (stereo not drawn) [Compound 2-4, (3-chloropyridin-2-yl)(3-(4-((4-fluorophenyl)(hydroxy)methyl)-2-(hydroxymethyl)phenyl)pyrrolidin-1-yl)methanone], the IC50 [1] is reported as greater than 3200 nM and the IC50 [2] is reported as greater than 1000 nM.
In the case of `O=C(c1ccc(F)cc1)c1ccc(C2CCN(C(=O)c3ncccc3Cl)C2)c(CO)c1` (stereo not drawn) [Compound 2-10, (4-(1-(3-chloropicolinoyl)pyrrolidin-3-yl)-3-(hydroxymethyl)phenyl)(4-fluorophenyl)methanone], the IC50 [1] is reported as greater than 3200 nM and the IC50 [2] is reported as greater than 1000 nM.
For `O=C(c1cocn1)N1CCC(c2ccc(-c3ccccc3C3CC3)cc2CO)C1` (stereo not drawn) [Compound 2-121], the IC50 [1] was 61.2 nM.
With `CCc1ccccc1-c1ccc(C2CCN(C(=O)c3cc(OC)ccn3)C2)c(CO)c1` (stereo not drawn) [Compound 2-63, (3-(2′-ethyl-3-(hydroxymethyl)biphenyl-4-yl)pyrrolidin-1-yl)(4-methoxypyridin-2-yl)methanone] the IC50 [1] was 235 nM and the IC50 [2] was 100 to 1000 nM.
Compound `O=C(c1ccncn1)N1CCC(c2ccc(-c3ccccc3C3CC3)cc2CO)C1` (stereo not drawn) [Compound 2-110, (3-(2′-cyclopropyl-3-(hydroxymethyl)biphenyl-4-yl)pyrrolidin-1-yl)(pyrimidin-4-yl)methanone] has an IC50 [1] of 197 nM and an IC50 [2] of 100 to 1000 nM.
In the case of `O=C(c1cscn1)N1CCC(c2ccc(-c3ccccc3C3CC3)cc2CO)C1` (stereo not drawn) [Compound 2-111, (3-(2′-cyclopropyl-3-(hydroxymethyl)biphenyl-4-yl)pyrrolidin-1-yl)(thiazol-4-yl)methanone], the IC50 [1] is reported as 194 nM and the IC50 [2] is reported as 100 to 1000 nM.
For `NC(=O)c1cc(C(F)(F)F)ccc1N1CC[C@@H](Oc2ccc(C(F)(F)F)cn2)C1` [Compound 1-84, (R)-5-(trifluoromethyl)-2-(3-(5-(trifluoromethyl)pyridin-2-yloxy)pyrrolidin-1-yl)benzamide], the IC50 [2] was 100 to 1000 nM and the IC50 [3] was 631 nM.
For `O=C(O)c1cc(-c2ccccc2)ccc1N1CC[C@H](Oc2ccc(C(F)(F)F)cn2)C1` [Compound 1-165, (S)-4-(3-(5-(trifluoromethyl)pyridin-2-yloxy)pyrrolidin-1-yl)biphenyl-3-carboxylic acid], the IC50 [2] was greater than 1000 nM and the IC50 [3] was greater than 3200 nM.
`O=C(c1ccc(Cl)cn1)N1CCC(c2ccc(-c3ccccc3)nc2CO)C1` (stereo not drawn) [Compound 2-82] gave an IC50 [1] of 836 nM and an IC50 [2] of 100 to 1000 nM.
`OCc1nc(-c2ncccn2)ccc1N1CC[C@H](Oc2ccc(C(F)(F)F)cn2)C1` [Compound 1-245, (S)-(6-(pyrimidin-2-yl)-3-(3-(5-(trifluoromethyl)pyridin-2-yloxy)pyrrolidin-1-yl)pyridin-2-yl)methanol] showed an IC50 [2] greater than 1000 nM and an IC50 [3] greater than 3200 nM.
For `NC(=O)c1cc(-c2ncc[nH]2)ccc1N1CC[C@@H](Oc2ccc(C(F)(F)F)cn2)C1` [Compound 1-107, (R)-5-(1H-imidazol-2-yl)-2-(3-(5-(trifluoromethyl)pyridin-2-yloxy)pyrrolidin-1-yl)benzamide], the IC50 [2] was greater than 1000 nM, the IC50 [3] was greater than 1000 nM and the IC50 [5] was greater than 1000 nM. For the same compound, the IC50 [4] was greater than 1000 nM.
With `Cc1cccc(C(=O)N2CCC(c3ccc(Oc4ccccc4C(C)C)cc3CO)C2)n1` (stereo not drawn) [Compound 2-19, (3-(2-(hydroxymethyl)-4-(2-isopropylphenoxy)phenyl)pyrrolidin-1-yl)(6-methylpyridin-2-yl)methanone] the IC50 [1] was 191 nM and the IC50 [2] was 10 to 100 nM.
For `O=C(c1ncccc1Cl)N1CCC(c2ccc(C(O)c3ccccc3F)cc2CO)C1` (stereo not drawn) [Compound 2-5, (3-chloropyridin-2-yl)(3-(4-((2-fluorophenyl)(hydroxy)methyl)-2-(hydroxymethyl)phenyl)pyrrolidin-1-yl)methanone], the IC50 [1] was greater than 3200 nM and the IC50 [2] was greater than 1000 nM.
For `COC(C)c1ccccc1Oc1ccc(N2CC[C@H](Oc3ccc(F)cn3)C2)c(CCO)c1` (stereo partly drawn) [Compound 1-347, 2-(2-((S)-3-(5-fluoropyridin-2-yloxy)pyrrolidin-1-yl)-5-(2-(1-methoxyethyl)phenoxy)phenyl)ethanol], the IC50 [2] was 100 to 1000 nM, the IC50 [3] was 220 nM and the IC50 [5] was 100 to 1000 nM. The IC50 [4] was 198 nM.
`O=C(O)c1cc(-c2ccccc2)cnc1N1CC[C@@H](Oc2ccc(C(F)(F)F)cn2)C1` [Compound 1-91] was tested, and the “hTRPV3 (nM) (Phase 1)” value (Phase 1 current) was “Agonist (Phase 1)”.
Work on `NC(=O)c1cc(-c2ccccc2)ncc1N1CC[C@@H](Oc2ccc(C(F)(F)F)cn2)C1` [Compound 1-99, (R)-2-phenyl-5-(3-(5-(trifluoromethyl)pyridin-2-yloxy)pyrrolidin-1-yl)isonicotinamide] yielded an IC50 [2] of 100 to 1000 nM, an IC50 [3] of roughly 787 nM and an IC50 [5] of 100 to 1000 nM. The IC50 [4] was 349 nM.
In the case of `OCc1cc(Br)ccc1N1C[C@@H](O)[C@H](Oc2ccc(C(F)(F)F)cn2)C1` [Compound 1-284], the IC50 [2] is reported as greater than 1000 nM and the IC50 [3] is reported as 1630 nM.
`OCc1cc(Oc2ccc(Cl)cc2)ccc1N1C[C@@H](O)[C@H](Oc2ccc(C(F)(F)F)cn2)C1` [Compound 1-285] was tested, and the IC50 [2] was greater than 1000 nM, the IC50 [3] was greater than 3200 nM and the IC50 [5] was greater than 1000 nM. It also gave an IC50 [4] of roughly 4900 nM.
In the case of `N#Cc1ccccc1-c1ccc(N2CC[C@H](Oc3ccc(F)cn3)C2)c(CO)n1` [Compound 1-210, (S)-2-(5-(3-(5-fluoropyridin-2-yloxy)pyrrolidin-1-yl)-6-(hydroxymethyl)pyridin-2-yl)benzonitrile], the IC50 [2] is reported as 100 to 1000 nM and the IC50 [3] is reported as 972 nM.
`COc1ccccc1Oc1ccc(N2CC[C@H](Oc3ncccc3F)C2)c(CO)c1` [Compound 1-346, (S)-(2-(3-(3-fluoropyridin-2-yloxy)pyrrolidin-1-yl)-5-(2-methoxyphenoxy)phenyl)methanol] showed an IC50 [2] of 100 to 1000 nM and an IC50 [3] of 612 nM.
For `NC(=O)c1cc(-c2ccccc2)ccc1N1CCC(Oc2ccc3ccccc3n2)C1=O` (stereo not drawn) [Compound 1-123, 4-(2-oxo-3-(quinolin-2-yloxy)pyrrolidin-1-yl)biphenyl-3-carboxamide], the IC50 [2] was greater than 1000 nM and the IC50 [3] was greater than 3200 nM.
`CN(C)Cc1ccccc1N1CC[C@H](Oc2ccc(C(F)(F)F)cn2)C1` [Compound 1-61, (S)—N,N-dimethyl-1-(2-(3-(5-(trifluoromethyl)pyridin-2-yloxy)pyrrolidin-1-yl)phenyl) methanamine hydrochloride] gave an IC50 [2] greater than 1000 nM.
`O=C(NCc1ccccc1)c1ccccc1N1CC[C@@H](Oc2ccc(C(F)(F)F)cn2)C1` [Compound 1-50, (R)—N-benzyl-2-(3-(5-(trifluoromethyl)pyridin-2-yloxy)pyrrolidin-1-yl)benzamide] gave an IC50 [2] greater than 1000 nM and an IC50 [5] greater than 1000 nM.
Compound `NC(=O)c1cc(-c2ccccn2)ccc1N1CC[C@H](Nc2ccc(C(F)(F)F)cn2)C1` [Compound 1-376, (S)-5-(pyridin-2-yl)-2-(3-(5-(trifluoromethyl)pyridin-2-ylamino)pyrrolidin-1-yl)benzamide] has an IC50 [2] greater than 1000 nM, an IC50 [3] greater than 3200 nM and an IC50 [5] greater than 1000 nM. For the same compound, the IC50 [4] was greater than 3200 nM.
With `CCc1c(Oc2ccc(F)c(CO)c2)ncnc1N1CC[C@H](Oc2ncccc2Cl)C1` [Compound 1-359, (S)-(5-(6-(3-(3-chloropyridin-2-yloxy)pyrrolidin-1-yl)-5-ethylpyrimidin-4-yloxy)-2-fluorophenyl)methanol] the “hTRPV3 (nM) (Phase 1)” value (Phase 1 current) was “Agonist (Phase 1)”.
